Assay results from patent publication US20250339569A1, “CARBONIC ANHYDRASE IX LIGANDS” (priority 2021, published 2025).
Starred links: 1 amine or outer side, 2 acyl side, 3 side chain; linkers in the order of their positions; H or OH if unused. Positions of bridges follow the written chain, without caps; N, C: chain ends. Non-standard residues stand in square brackets, D forms with d. Residues, ends and D or L forms follow the SMILES beside them. *: point of attachment. NH(1-deoxy-D-glucityl) = OC[C@@H](O)[C@@H](O)[C@H](O)[C@@H](O)CN*; DOTA = O=C(O)CN1CCN(CC(=O)O)CCN(CC(=O)*)CCN(CC(=O)O)CC1; mXylylene = c1cc(C[*:1])cc(C[*:2])c1; Orn(Me2) = CN(C)CCC[C@H](N)C(=O)O; X2 = O=C(CN1CCC(N[*:1])CC1)[*:2]; αMeL = CC(C)C[C@](C)(N)C(=O)O; NMeS = CN[C@@H](CO)C(=O)O; Bn = c1ccc(C*)cc1

Molecular target: T1, CAIX-expressing human HT-29 colorectal cancer cells (Homo sapiens, UniProt Q16790)
T1 construct: CAIX-expressing human HT-29 colorectal cancer cells; host or cells: HT-29 human colorectal cancer cells
Experiment: FACS binding assay (IC50 determination, competition with tracer 3BP-2776 or 3BP-4149)
Settings: not given
In short: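 HT-29 cells in FACS buffer (PBS, 1% FCS) at 500.000 cells/ml were exposed to compounds competing with a labelled tracer, with biotinylated compounds detected by 1 μg/mL APC-streptavidin for 30 min on ice. APC/Cy5 median fluorescence was read by flow cytometry and IC50 derived by 4PL fit.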

| SMILES | IC50 [nM] |
| --- | --- |
| CC(C)C[C@@H]1NC(=O)[C@H](Cc2c[nH]c3ccccc23)NC(=O)[C@H](Cc2ccc(OCc3ccccc3)cc2)NC(=O)[C@H]2CCCN2C(=O)[C@H](CCC(=O)O)NC(=O)[C@@H](NC(=O)[C@H](Cc2ccc(O)cc2)NC(=O)[C@@H](NC(=O)CN2CCC(NC(=O)CN3CCN(CC(=O)O)CCN(CC(=O)O)CCN(CC(=O)O)CC3)CC2)C(C)C)CSCc2cccc(c2)CSC[C@@H](C(N)=O)NC(=O)[C@H](CO)NC(=O)[C@H](Cc2c[nH]c3ccccc23)NC(=O)[C@H]([C@@H](C)O)NC1=O [3BP-4127] ({DOTA}-[X2]VYCE[dP]Y(Bn)WLTWSC-NH2; linker 4-13 via mXylylene) | < 10 |

Same assay, conditions: FACS binding assay, HT-29 cells, competition with tracer 3BP-2776 (10 nM, biotin-labeled), 4° C., 1 hour; read-out: pIC50 category (activity) (converted)

| SMILES | IC50 [nM] |
| --- | --- |
| CC(C)C[C@@H]1NC(=O)[C@H](Cc2c[nH]c3ccccc23)NC(=O)[C@H](CCCN(C)C)NC(=O)[C@H]2CCCN2C(=O)[C@H](CCC(=O)O)NC(=O)[C@@H](NC(=O)[C@H](Cc2ccc(O)cc2)NC(=O)[C@@H](NC(=O)CN2CCC(NC(=O)CN3CCN(CC(=O)O)CCN(CC(=O)O)CCN(CC(=O)O)CC3)CC2)C(C)C)CSCc2cccc(c2)CSC[C@@H](C(N)=O)NC(=O)[C@H](CO)NC(=O)[C@H](Cc2c[nH]c3ccccc23)NC(=O)[C@H]([C@@H](C)O)NC1=O [3BP-4098] ({DOTA}-[X2]VYCE[dP][Orn(Me2)]WLTWSC-NH2; linker 4-13 via mXylylene) | 10 to 79.4 |
| CC(C)C[C@@H]1NC(=O)[C@H](Cc2c[nH]c3ccccc23)NC(=O)[C@H](CC(=O)O)NC(=O)[C@H]2CCCN2C(=O)[C@H](CCC(=O)O)NC(=O)[C@@H](NC(=O)[C@H](Cc2ccc(O)cc2)NC(=O)[C@@H](NC(=O)CN2CCC(NC(=O)CN3CCN(CC(=O)O)CCN(CC(=O)O)CCN(CC(=O)O)CC3)CC2)C(C)C)CSCc2cccc(c2)CSC[C@@H](C(N)=O)NC(=O)[C@H](CO)NC(=O)[C@H](Cc2c[nH]c3ccccc23)NC(=O)[C@H](CCCN(C)C)NC1=O [3BP-4099] ({DOTA}-[X2]VYCE[dP]DWL[Orn(Me2)]WSC-NH2; linker 4-13 via mXylylene) | < 10 |
| CC(C)C[C@@H]1NC(=O)[C@H](Cc2c[nH]c3ccccc23)NC(=O)[C@H](CC(=O)O)NC(=O)[C@H]2CCCN2C(=O)[C@H](CCC(=O)O)NC(=O)[C@@H](NC(=O)[C@H](Cc2ccc(O)cc2)NC(=O)[C@@H](NC(=O)CN2CCC(NC(=O)CN3CCN(CC(=O)O)CCN(CC(=O)O)CCN(CC(=O)O)CC3)CC2)C(C)C)CSCc2cccc(c2)CSC[C@@H](C(N)=O)NC(=O)[C@H](CCCN(C)C)NC(=O)[C@H](Cc2c[nH]c3ccccc23)NC(=O)[C@H]([C@@H](C)O)NC1=O [3BP-4100] ({DOTA}-[X2]VYCE[dP]DWLTW[Orn(Me2)]C-NH2; linker 4-13 via mXylylene) | < 10 |
| CC(C)C[C@]1(C)NC(=O)[C@H](Cc2c[nH]c3ccccc23)NC(=O)[C@H](CC(=O)O)NC(=O)[C@H]2CCCN2C(=O)[C@H](CCC(=O)O)NC(=O)[C@@H](NC(=O)[C@H](Cc2ccc(O)cc2)NC(=O)[C@@H](NC(=O)CN2CCC(NC(=O)CN3CCN(CC(=O)O)CCN(CC(=O)O)CCN(CC(=O)O)CC3)CC2)C(C)C)CSCc2cccc(c2)CSC[C@@H](C(N)=O)NC(=O)[C@H](CO)NC(=O)[C@H](Cc2c[nH]c3ccccc23)NC(=O)[C@H]([C@@H](C)O)NC1=O [3BP-4106] ({DOTA}-[X2]VYCE[dP]DW[αMeL]TWSC-NH2; linker 4-13 via mXylylene) | 10 to 79.4 |
| CC(C)C[C@@H]1NC(=O)[C@H](Cc2c[nH]c3ccccc23)NC(=O)[C@H](CC(=O)O)NC(=O)[C@H]2CCCN2C(=O)[C@H](CO)N(C)C(=O)[C@@H](NC(=O)[C@H](Cc2ccc(O)cc2)NC(=O)[C@@H](NC(=O)CN2CCC(NC(=O)CN3CCN(CC(=O)O)CCN(CC(=O)O)CCN(CC(=O)O)CC3)CC2)C(C)C)CSCc2cccc(c2)CSC[C@@H](C(N)=O)NC(=O)[C@H](CO)NC(=O)[C@H](Cc2c[nH]c3ccccc23)NC(=O)[C@H]([C@@H](C)O)NC1=O [3BP-4108] ({DOTA}-[X2]VYC[NMeS][dP]DWLTWSC-NH2; linker 4-13 via mXylylene) | < 10 |
| CC(C)C[C@@H]1NC(=O)[C@H](Cc2c[nH]c3ccccc23)NC(=O)[C@H](CC(=O)O)NC(=O)[C@H]2CCCN2C(=O)[C@H](CCC(=O)NC[C@H](O)[C@@H](O)[C@H](O)[C@H](O)CO)NC(=O)[C@@H](NC(=O)[C@H](Cc2ccc(O)cc2)NC(=O)[C@@H](NC(=O)CN2CCC(NC(=O)CN3CCN(CC(=O)O)CCN(CC(=O)O)CCN(CC(=O)O)CC3)CC2)C(C)C)CSCc2cccc(c2)CSC[C@@H](C(N)=O)NC(=O)[C@H](CO)NC(=O)[C@H](Cc2c[nH]c3ccccc23)NC(=O)[C@H]([C@@H](C)O)NC1=O [3BP-4113] ({DOTA}-[X2]VYCE(NH(1-deoxy-D-glucityl))[dP]DWLTWSC-NH2; linker 4-13 via mXylylene) | < 10 |
| CC(C)C[C@@H]1NC(=O)[C@H](Cc2c[nH]c3ccccc23)NC(=O)[C@H](CC(=O)O)NC(=O)[C@H]2CCCCNC(=O)CC[C@H](NC1=O)C(=O)N[C@@H](Cc1c[nH]c3ccccc13)C(=O)N[C@@H](CO)C(=O)N[C@H](C(N)=O)CSCc1cccc(c1)CSC[C@H](NC(=O)[C@H](Cc1ccc(O)cc1)NC(=O)[C@@H](NC(=O)CN1CCC(NC(=O)CN3CCN(CC(=O)O)CCN(CC(=O)O)CCN(CC(=O)O)CC3)CC1)C(C)C)C(=O)N[C@@H](CCC(=O)O)C(=O)N2 [3BP-4114] ({DOTA}-[X2]VYCE[dK]DWLEWSC-NH2; linker 4-13 via mXylylene; lactam 6-10) | 10 to 79.4 |
| CC(C)C[C@@H]1NC(=O)[C@H](Cc2c[nH]c3ccccc23)NC(=O)[C@H](CO)NC(=O)[C@H]2CCCCNC(=O)CC[C@H](NC1=O)C(=O)N[C@@H](Cc1c[nH]c3ccccc13)C(=O)N[C@@H](CO)C(=O)N[C@H](C(N)=O)CSCc1cccc(c1)CSC[C@H](NC(=O)[C@H](Cc1ccc(O)cc1)NC(=O)[C@@H](NC(=O)CN1CCC(NC(=O)CN3CCN(CC(=O)O)CCN(CC(=O)O)CCN(CC(=O)O)CC3)CC1)C(C)C)C(=O)N[C@@H](CCC(=O)O)C(=O)N2 [3BP-4115] ({DOTA}-[X2]VYCE[dK]SWLEWSC-NH2; linker 4-13 via mXylylene; lactam 6-10) | 10 to 79.4 |
| CC(C)C[C@@H]1NC(=O)[C@H](Cc2c[nH]c3ccccc23)NC(=O)[C@H](CCC(=O)NC[C@H](O)[C@@H](O)[C@H](O)[C@H](O)CO)NC(=O)[C@H]2CCCN2C(=O)[C@H](CCC(=O)O)NC(=O)[C@@H](NC(=O)[C@H](Cc2ccc(O)cc2)NC(=O)[C@@H](NC(=O)CN2CCC(NC(=O)CN3CCN(CC(=O)O)CCN(CC(=O)O)CCN(CC(=O)O)CC3)CC2)C(C)C)CSCc2cccc(c2)CSC[C@@H](C(N)=O)NC(=O)[C@H](CO)NC(=O)[C@H](Cc2c[nH]c3ccccc23)NC(=O)[C@H]([C@@H](C)O)NC1=O [3BP-4120, DOTA-APAc-Val-Tyr-[Cys(3MeBn)-Glu-pro-Glu(AGLU)-Trp-Leu-Thr-Trp-Ser-Cys]-NH2] ({DOTA}-[X2]VYCE[dP]E(NH(1-deoxy-D-glucityl))WLTWSC-NH2; linker 4-13 via mXylylene) | 10 to 79.4 |
| CC(C)C[C@@H]1NC(=O)[C@H](CSCc2ccccc2)NC(=O)[C@H](CC(=O)O)NC(=O)[C@H]2CCCN2C(=O)[C@H](CCC(=O)O)NC(=O)[C@@H](NC(=O)[C@H](Cc2ccc(O)cc2)NC(=O)[C@@H](NC(=O)CN2CCC(NC(=O)CN3CCN(CC(=O)O)CCN(CC(=O)O)CCN(CC(=O)O)CC3)CC2)C(C)C)CSCc2cccc(c2)CSC[C@@H](C(N)=O)NC(=O)[C@H](CO)NC(=O)[C@H](Cc2c[nH]c3ccccc23)NC(=O)[C@H]([C@@H](C)O)NC1=O [3BP-4130] ({DOTA}-[X2]VYCE[dP]DC(Bn)LTWSC-NH2; linker 4-13 via mXylylene) | < 10 |
